# Earlier results in patent US8283364B2, “Compounds which have activity at M1 receptor and their uses in medicine” (Glaxo Group Limited, priority 2005, dated 2012).
# Experiments:
# [1] = test system: dopamine driven behaviours; conditions: amphetamine induced locomotion in rats, apomorphine induced climbing in mice, turning in 6-OH-DA lesioned rats, amphetamine-induced motor unrest in monkeys
# [2] = test system: A10 and A9 dopamine cell firing; conditions: A10 versus A9
# [3] = test system: psychotic symptoms
structure (smiles),measurement,setting,value
CCCCCCOc1nsnc1C1=CCCN(C)C1 [xanomeline],effect on dopamine driven behaviours,[1],reverses a number of dopamine driven behaviours
same,effect on dopamine cell firing,[2],"inhibit A10, but not A9, dopamine cell firing"
same,"effect on psychotic symptoms (suspiciousness, hallucinations, delusions)",[3]; Alzheimer's patients,reduce psychotic symptoms
same,side effects,[3]; ascribed to relatively non-selective nature of the compound,dose-limiting peripheral cholinergic side effects
